According to patent US20210379068A1, “METHODS AND MATERIALS FOR TREATING NEUROPSYCHIATRIC DISORDERS” (Mayo Foundation for Medical Education and Research, priority 2018, published 2021):
“Also recorded” adds a separate entry of the source.

Experiments:
[1] = test system: senescent cells in the amygdala; assay: Telomere associated foci (TAF) in basomedial layer of the amygdala, INK-ATTAC mice; assay type: in vivo, mouse; settings: HFD INK-ATTAC mice, AP20187 vs vehicle
Experimental: (§1) INK-ATTAC mice were injected intraperitoneally (i.p.) with AP20187 (10 mg/kg) or vehicle for 3 days every 2 weeks for a total of 8-10 weeks.
Paraffin sections were deparaffinized with Histoclear and hydrated in an ethanol gradient followed by water and PBS. Antigen was retrieved by incubation in 0.01M citrate buffer (pH 6.0) at 95° C. for 10 minutes. Slides were placed in blocking buffer (1:60 normal goat serum [S-1000, Vector Laboratories] in 0.1% BSA/PBS) for 60 minutes at room temperature. […] Primary antibodies used (Table 2) were diluted in blocking buffer and applied overnight at 4° C. The next day, slides were washed 3 times with PBS and incubated for 30 minutes with secondary goat, anti-rabbit antibody (1:200; Vector Laboratories #BA-1000) for TAF staining or for 60 minutes with secondary Alexa antibody (Table 1). For TAF staining, Fluorescein-Avidin in PBS (1:500; #A-2011, Vector Lab) was applied to each sample for 20 minutes. Slides were washed 3 times in PBS, which was followed by FISH for TAF detection. […]
A single, 3 μm-thick section per mouse was used for TAF staining, while for Dcx and Plin2 staining was performed on three 10 μm-thick sections 80 μm-apart. To quantify periventricular lipid accumulation 10-30 images in the periventricular region were taken using the DM5500 widefield fluorescence microscope from Leica with a 10× (for frequency of periventricular glia) or ×40 (for ALISE phenotype of ependymal cells) objective lens. Number of Plin2-positive cells (for frequency of ALISE-positive periventricular glia) or area of Plin2-positive vesicles (for ALISE phenotype of ependymal cells) was assessed using ImageJ software. For identity assessment of Plin2+ cells, 10 μm-thick sections were stained with combination of antibodies for Iba1 (secondary antibody conjugated with Alexa Fluor 488), Plin2 (secondary antibody conjugated with Alexa Fluor 594), and Vimentin (secondary antibody conjugated with Alexa Fluor 647) and quantified for frequency of Plin2+ astrocytes (Iba1−, Vim+) and microglia (Iba1+) in the periventricular region. […]

INK-ATTAC mice = assay: Stone's T-maze, INK-ATTAC mice treated with AP20187; assay type: in vivo, mouse; settings: chow/HFD INK-ATTAC mice; AP20187 vs vehicle
Experimental: as §1
A water-motivated version of the Stone's T-maze was used to measure parameters of cognition. A straight run (for pre-training) or Stone's T-maze were placed into a steel pan filled with water to a depth of approximately 3 cm so that half the height of the interior walls of the maze were under water. The ceilings of both the straight run and maze were covered with clear acrylic to prevent mice from rearing out of the water. These dimensions created a situation that enables the mice to maintain contact with the floor while keeping their heads above water. The mice were placed into a start box and were pushed into the maze using a sliding panel. At the end of the straight run or maze there was a goal box that contains a ramp to a dry floor, which allows the mice to escape from the water upon successful completion of the straight run or maze. On day one, mice underwent straight run training to establish the concept that moving forward allows them to escape the water by reaching a water-free goal box. Successful completion of this phase requires the mice to reach the goal box in 10 seconds or faster in 8 out of 10 trials. […] Maze training commenced the following day. Mice had to complete 9 maze acquisition trials in a single day. […]

SMILES: CC[C@H](C(=O)N1CCCC[C@H]1C(=O)O[C@H](CCc1ccc(OC)c(OC)c1)c1cccc(OCC(=O)NCC(CNC(=O)COc2cccc([C@@H](CCc3ccc(OC)c(OC)c3)OC(=O)[C@@H]3CCCCN3C(=O)[C@@H](CC)c3cc(OC)c(OC)c(OC)c3)c2)CN(C)C)c1)c1cc(OC)c(OC)c(OC)c1 [AP]
- % of NeuN-pos cells with 2 or more TAF (TAF positive neurons), basomedial layer of the amygdala [1]: significant decrease
- mean number of TAF in NeuN-pos cells, basomedial layer of the amygdala [1]: significantly reduced
- % of NeuN-pos cells with 2 or more TAF (TAF positive neurons), basomedial layer of the amygdala ([1]; listed as AP20187): significantly reduced
- short-term memory (Stone's maze: time to finish, frequency of errors) (INK-ATTAC mice): not affected; also recorded: not altered
